Measured values reported in US8263605B2, “Modulators of muscarinic receptors” (Vertex Pharmaceutical Incorporated, priority 2006, dated 2012).

Legend:
[1] = molecular target: T1, M4 muscarinic receptor (Homo sapiens, UniProt P08173); experiment: Functional mobilization of intracellular calcium (FLIPR), M4-CHO cells; format: cell-based; conditions: for Emax: 100% efficacy is the maximum response obtained with the Carbachol control; for M4 Activity: CHO cells expressing M4, calcium mobilization
T1 construct: expressed in transfected cells; host or cells: CHO (M4-CHO)
T1 sequence (P08173 1-479): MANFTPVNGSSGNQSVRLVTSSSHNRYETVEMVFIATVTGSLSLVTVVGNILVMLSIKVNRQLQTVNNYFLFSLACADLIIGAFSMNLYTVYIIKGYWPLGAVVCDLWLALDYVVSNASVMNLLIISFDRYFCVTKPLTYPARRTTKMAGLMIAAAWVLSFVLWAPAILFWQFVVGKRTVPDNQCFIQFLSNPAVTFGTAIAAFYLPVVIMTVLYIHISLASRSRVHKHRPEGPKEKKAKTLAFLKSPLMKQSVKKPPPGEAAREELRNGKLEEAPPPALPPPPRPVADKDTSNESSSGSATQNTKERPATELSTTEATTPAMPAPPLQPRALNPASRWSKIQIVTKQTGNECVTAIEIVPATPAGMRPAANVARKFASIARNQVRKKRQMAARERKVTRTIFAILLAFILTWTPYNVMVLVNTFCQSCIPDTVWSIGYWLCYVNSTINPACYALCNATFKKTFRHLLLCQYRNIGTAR
Method: (§1) Functional Mobilization of Intracellular Calcium to Determine Muscarinic Receptor Activity:
(§2) CHO cells expressing muscarinic receptors (M1 to M5) are grown as monolayers in tissue culture flasks at 37° C. in a humidified atmosphere containing 5% CO2 and passaged every 3-5 days. The growth media is Dulbecco's modified eagles medium (DMEM, Gibco Cat#12430-054), containing 25 mM Hepes and supplemented with Fetal Bovine Serum (Hyclone, cat# SH30071.03), 0.1 mM of MEM non-essential amino acids (GIBCO, Cat#11140-050), 1 mM MEM Sodium Pyruvate (GIBCO Cat#11360-070) and 100 units/ml of Penicillin G and 100 μg/ml of Streptomycin (GIBCO Cat#15140-122). The recombinant muscarinic receptor cell lines are grown under antibiotic pressure with media containing 25 μg/ml zeocin and 500 μg/ml G418 (M1-CHO), 4 μg/ml puromycin, 50 μg/ml zeocin and 2.5 μg/ml blasticidin (M2 and M4-CHO) or 50 μg/ml zeocin and 4 μg/ml puromycin (M3 and M5-CHO).
(§3) Cells are harvested at 80-90% confluence using Versene (GIBCO Cat#15040-066), collected by centrifugation and seeded 18-24 hours prior to running the calcium assay at a density of 5,000-10,000 cells/well in […], clear-bottomed 384-well plates (BD Biocoat, poly-D-lysine, Cat#356663). The day of the experiment, the cells are washed with a plate washer (Bioteck Instrunents, ELX 405) using bath 1 buffer (140-mM NaCl, 4.5-mM KCl, 2-mM CaCl2, 1-mM MgCl2, 10-mM Hepes-Na, 10-mM Glucose, pH 7.4, with NaOH) containing 1 mM Probenecid. Next, the calcium dye Fluo-3 (25 μl/well of Fluo-3 AM at 4 μM, Molecular Probes F-1241, in Bath 1 buffer containing 1 mM Probenecid) is added to the 25 μl of Bath 1 remaining in each well after the plate wash and the dye is loaded at 37° C. in the tissue culture incubator for 60-90 min. The fluorescent dye is removed using the plate washer with Bath 1 containing 1 mM Probenecid, leaving 25 μl/well of this solution after the wash. Alternatively, cells can be loaded with the calcium indicator from Molecular Devices (Calcium 3 Assay Reagents, Cat # R7181) adding 5 μl of a 5× solution dye in Bath 1 containing 1 mM Probenecid (10 ml per dye flask cat# R7182 to generate a solution 20×) to 20 μl of the same buffer. After loading for 60 min, the experiment can be run without having to remove the dye.
(§4) Compounds are prepared at a 2× fold concentration in a 96-well plate (round bottom, Costar Corning cat#3656), by reconstituting the pre-spotted compounds in bath 1 containing 1 mM probenecid. The final concentration DMSO is 0.5%, and the amount of DMSO is normalized across the assay plate. To determine an agonist action of the compounds on muscarinic receptors, the reconstituted compounds are added (25 μl compound/well) to the cell assay plate (containing 25 μl/well) using the multi-channel robotic system of the FLIPR 3 Instrument (Molecular Devices, Sunnyvale, Calif.). To determine a functional inhibitory action of the compounds on muscarinic receptors, the reconstituted compounds are added (25 μl compound/well) to the assay plate and pre-incubated for 15 min prior to adding 25 μl of Carbachol at 3× the EC80 for each muscarinic subtype. Alternatively, the compounds can be co-applied simultaneously with the agonist. In both assay modes, the fluorescence is recorded for 60 sec (excitation wavelength is […] and emission wavelength 540 nm) using the FLIPR 3 instrument.
(§5) The potency, efficacy and selectivity of the muscarinic compounds were evaluated by screening the compound activity across the whole family (M1 to M5 cells). Compounds were also screened for activity on other proteins such as other GPCRs and ion channels to determine selectivity on M4 receptors.
(§6) Examples of activities and efficacies of the muscarinic compounds of formulae (I, Ia, Ib, Ic, Id, and Ie) on modulating M1 and M4 receptors are shown below in Table 4. […]

[2] = molecular target: T2, M1 muscarinic receptor (Homo sapiens, UniProt P11229); experiment: Functional mobilization of intracellular calcium (FLIPR), M1-CHO cells; format: cell-based; conditions: for Emax: 100% efficacy is the maximum response obtained with the Carbachol control; for M1 Activity: CHO cells expressing M1, calcium mobilization
T2 construct: expressed in transfected cells; host or cells: CHO (M1-CHO)
T2 sequence (P11229 1-460): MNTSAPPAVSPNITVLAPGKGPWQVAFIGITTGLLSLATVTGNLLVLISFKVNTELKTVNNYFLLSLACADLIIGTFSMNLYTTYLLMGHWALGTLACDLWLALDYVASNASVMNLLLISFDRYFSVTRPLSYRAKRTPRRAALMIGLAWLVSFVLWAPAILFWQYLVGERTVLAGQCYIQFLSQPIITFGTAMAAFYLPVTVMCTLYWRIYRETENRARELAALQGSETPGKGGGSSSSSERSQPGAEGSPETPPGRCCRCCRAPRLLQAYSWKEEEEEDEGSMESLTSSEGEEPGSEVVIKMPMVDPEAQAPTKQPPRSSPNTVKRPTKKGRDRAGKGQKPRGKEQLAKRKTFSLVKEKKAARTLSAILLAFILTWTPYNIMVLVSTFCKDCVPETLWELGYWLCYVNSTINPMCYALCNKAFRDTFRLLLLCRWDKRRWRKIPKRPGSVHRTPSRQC
Method: as §1, §2, §3, §4, §5, §6

Structure (SMILES) | Emax [1] [%] | M4 Activity [1] | Emax [2] [%] | M1 Activity [2]
CN(C)C(=O)N[C@H]1CC2(CCN(C3CC4CC[C@@H]3C4)CC2)c2ccccc21 (stereo in doubt) [Compound No. 119, 3-((S)-1′-((1R,2S,4S)-bicyclo[2.2.1]heptan-2-yl)-2,3-dihydrospiro[indene-1,4′-piperidine]-3-yl)-1,1-dimethylurea] | 25 to 100 | +++ (activity was measured to be less than 2.0 μM) | < 25 | + (activity was measured to be greater than 10.0 μM)
CC#CCOC(=O)N1CCC(N2CCC3(CCN(C(=O)N(C)C)c4ccccc43)CC2)CC1 [Compound No. 5, but-2-ynyl 4-(1′-(dimethylcarbamoyl)-2′,3′-dihydro-1′H-spiro[piperidine-4,4′-quinoline]-1-yl)piperidine-1-carboxylate] | 25 to 100 | +++ (activity was measured to be less than 2.0 μM) | 25 to 100 | +++ (activity was measured to be less than 2.0 μM)
Cc1cncc(N2CCC(N3CCC4(CCN(C(=O)N(C)C)c5ccccc54)CC3)CC2)n1 [Compound No. 9, N,N-dimethyl-1-(1-(6-methylpyrazin-2-yl)piperidin-4-yl)-2′,31-dihydrospiro[piperidine-4,4′-quinoline]-1′-carboxamide] | 25 to 100 | +++ (activity was measured to be less than 2.0 μM) | 25 to 100 | +++ (activity was measured to be less than 2.0 μM)
CCOC(=O)N1CCC(N2CCC3(CCN(C(C)=O)c4ccccc43)CC2)CC1 [Compound No. 11, ethyl 4-(1′-acetyl-2′,3′-dihydro-1′H-spiro[piperidine-4,4′-quinoline]-1-yl)piperidine-1-carboxylate] | > 100 | +++ (activity was measured to be less than 2.0 μM) | > 100 | +++ (activity was measured to be less than 2.0 μM)
Cc1ncc(N2CCC(N3CCC4(CCN(C(=O)N(C)C)c5ccccc54)CC3)CC2)nc1C [Compound No. 20, 1-(1-(5,6-dimethylpyrazin-2-yl)piperidin-4-yl)-N,N-dimethyl-2′,3′-dihydrospiro[piperidine-4,4′-quinoline]-1′-carboxamide] | 25 to 100 | +++ (activity was measured to be less than 2.0 μM) | 25 to 100 | ++ (activity was measured to be from 2.0 μM to 10.0 μM)
C#CCOC(=O)N1C2CCC1CC(N1CCC3(CCN(C(=O)N(C)C)c4ccccc43)CC1)C2 (stereo not shown) [Compound No. 28, prop-2-ynyl 3-(1′-(dimethylcarbamoyl)-2′,3′-dihydro-1′H-spiro[piperidine-4,4′-quinoline]-1-yl)-8-azabicyclo[3.2.1]octane-8-carboxylate] | 25 to 100 | +++ (activity was measured to be less than 2.0 μM) | 25 to 100 | +++ (activity was measured to be less than 2.0 μM)
CCc1nsc(N2C3CCC2CC(N2CCC4(CCN(C(=O)N(C)C)c5ccccc54)CC2)C3)n1 (stereo not shown) [Compound No. 32, 1-(8-(3-ethyl-1,2,4-thiadiazol-5-yl)-8-azabicyclo[3.2.1]octan-3-yl)-N,N-dimethyl-2′,3′-dihydro-1′ H-spiro[piperidine-4,4′-quinoline]-1′-carboxamide] | 25 to 100 | +++ (activity was measured to be less than 2.0 μM) | 25 to 100 | +++ (activity was measured to be less than 2.0 μM)
CCOC(=O)N1CCC(N2CCC3(CC2)CN(C(=O)N(C)C)c2ccccc23)CC1 [Compound No. 39, ethyl 4-(1-(dimethylcarbamoyl)spiro[indoline-3,4′-piperidine]-1′-yl)piperidine-1-carboxylate] | 25 to 100 | +++ (activity was measured to be less than 2.0 μM) | 25 to 100 | +++ (activity was measured to be less than 2.0 μM)
Cc1nsc(N2C3CCC2CC(N2CCC4(CC2)CN(C(=O)N(C)C)c2ccccc24)C3)n1 (stereo not shown) [Compound No. 65, N,N-dimethyl-1′-(8-(3-methyl-1,2,4-thiadiazol-5-yl)-8-azabicyclo[3.2.1]octan-3-yl)spiro[indoline-3,4′-piperidine]-1-carboxamide] | 25 to 100 | +++ (activity was measured to be less than 2.0 μM) | 25 to 100 | +++ (activity was measured to be less than 2.0 μM)
CN(C)C(=O)N1CC2(CCN(C3CC4CCC(C3)N4c3cnccn3)CC2)c2ccccc21 (stereo not shown) [Compound No. 103, N,N-dimethyl-1′-(8-(pyrazin-2-yl)-8-azabicyclo[3.2.1]octan-3-yl)spiro[indoline-3,4′-piperidine]-1-carboxamide] | > 100 | +++ (activity was measured to be less than 2.0 μM) | 25 to 100 | +++ (activity was measured to be less than 2.0 μM)
CCOC(=O)N1C2CCC1CC(N1CCC3(CCN(C(C)=O)c4ccccc43)CC1)C2 (stereo not shown) [compound 1] | 25 to 100 | +++ (activity was measured to be less than 2.0 μM) | 25 to 100 | +++ (activity was measured to be less than 2.0 μM)
COC(=O)N1CCC(N2CCC3(CCN(C(=O)N(C)C)c4ccccc43)CC2)CC1 [compound 2] | 25 to 100 | +++ (activity was measured to be less than 2.0 μM) | 25 to 100 | +++ (activity was measured to be less than 2.0 μM)
CCOC(=O)N1CCC(N2CCC3(CCN(C(=O)N(C)C)c4ccccc43)CC2)CC1 [compound 3] | > 100 | +++ (activity was measured to be less than 2.0 μM) | 25 to 100 | +++ (activity was measured to be less than 2.0 μM)
